Measurements from US20260193254A1, “2-OXOQUINAZOLINE CRYSTALLINE FORMS” (IDEAYA Biosciences, Inc., priority 2022, published 2026).
≈ marks a conversion by molar mass, not a printed value.

Assays:
[1] = Hygroscopicity: water sorption and desorption by dynamic vapor sorption (DVS); type: physicochemical
Method: In some embodiments, the crystalline form described herein is further characterized by is further characterized by a dynamic vapor sorption (DVS) profile. In some embodiments, a DVS is recorded according to the method as described herein with a cycle of 40-0-95-0-40% RH at 25° C.
Water sorption and desorption behaviors of Form A, Form C, Form D, and Form T were investigated by DVS at 25° C. with a cycle of 40-0-95-0-40% RH. Dm/dt was 0.002. Minimum equilibration time was 60 min. Maximum equilibration time was 360 min. XRPD was measured after DVS test to determine potential form change.

[2] = Grinding simulation experiments - dry grinding; type: physicochemical
Method: About 20 mg of Form A, Form D, and Form T were ground manually with a mortar and a pestle for 5 min or 1 min. Potential from transition and degree of crystallinity were evaluated by XRPD.

[3] = Grinding simulation experiments - wet grinding (granulation); type: physicochemical
Method: Water or ethanol was added drop wise to about 20 mg of Form A, Form D, or Form T until solid was wetted sufficiently. Vortex was applied between each addition. Samples were dried under ambient condition for 10 min. Potential form transition and degree of crystallinity were evaluated by XRPD.

[4] = Bulk stability of crystalline forms; type: physicochemical; settings: for Purity, Bulk (HPLC): Solid state; for Initial purity: before stress, HPLC; for chemical stability and physical stability (bulk stability): stressed under 25° C./92 RH, 40% C/75% RH and 60° C., XRPD and HPLC
Source text: (§1) Solids obtained after bulk stability study were characterized by XRPD and HPLC.

[5] = Equilibrium solubility in FeSSIF and FaSSIF; type: physicochemical; settings: 24 hours; for Solubility: target concentration 1 mg/mL, HPLC method 1 or 2 (footnote)
Method: Solid part and liquid part were separated by filtration. Solubility was measured by HPLC. Solid part (wet cake) was investigated by XRPD.

[6] = Intrinsic dissolution rate (IDR) evaluation in FaSSIF; type: physicochemical; settings: FaSSIF at 37° C.; for XRPD after IDR: disc surface after 120 min; for Concentration detected during IDR test (Comments): for Form V and Form A remains same during the whole process, LOQ for Form T and amorphous form
Method: Only one surface of the pellet was exposed (surface area=0.50 cm^2) to 900 mL FaSSIF, the dissolution medium. Temperature of chamber medium was set as 37±0.5° C. Shaft rotation as 100 rpm and sampling time points as 2 min, 5 min, 10 min, 15 min, 20 min, 25 min, 30 min, 35 min, 40 min, 50 min, 60 min, and 120 min. 2 mL sample solution was withdrawn at each time point and centrifuged at 14,000 rpm for 5 min to isolate supernatant. Then concentration of the supernatant was analyzed by HPLC. After 120 min, XRPD of disc surface was measured.

[7] = Bulk stability of crystalline forms; type: physicochemical; design: key: Color A: All No change of color; settings: Solid state
Source text: as §1

MAT2A enzyme = molecular target: T1, MAT2A enzyme (Homo sapiens, UniProt P31153); experiment: Phosphate Sensor Fluorescence Assay; type: biochemical; settings: inhibition of MAT2A enzyme
T1 construct: Human MAT2A: Cepter, amino acids 1-395; purchased Cepter clone ID 329, lot 00023-123; clone ID 334, lot 00023-148
T1 sequence (P31153 whole entry, the tested form may be a part): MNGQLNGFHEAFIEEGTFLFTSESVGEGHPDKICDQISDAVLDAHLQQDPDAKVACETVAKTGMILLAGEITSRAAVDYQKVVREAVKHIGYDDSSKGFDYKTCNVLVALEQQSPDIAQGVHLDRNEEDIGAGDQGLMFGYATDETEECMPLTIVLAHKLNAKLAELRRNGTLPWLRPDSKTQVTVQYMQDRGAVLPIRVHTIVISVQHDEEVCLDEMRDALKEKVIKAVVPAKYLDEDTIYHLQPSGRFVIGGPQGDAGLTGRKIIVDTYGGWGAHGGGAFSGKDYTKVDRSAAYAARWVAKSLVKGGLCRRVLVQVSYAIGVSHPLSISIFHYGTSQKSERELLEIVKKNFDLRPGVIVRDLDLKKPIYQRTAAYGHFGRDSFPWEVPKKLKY
Method: The ability of the compound of Formula (I) described in Example 1 to inhibit MAT2A enzyme was determined using a Phosphate Sensor Fluorescence Assay described below.
MAT2A enzyme is incubated with a test compound in DMSO or DMSO and its substrates (L-methionine and ATP) in a microtiter plate. The enzymatic reaction is stopped by the addition of Working Phosphate Sensor Mixture. The plate is analyzed for fluorescence at 450 nm. The high control (DMSO with enzyme and its substrates) gives high fluorescence which represents no inhibition of enzymatic activity while the low control (DMSO with MAT2A substrates and no enzyme) gives low fluorescence which represents full inhibition of enzymatic activity. […]
For the assay, a mixture of 1 mM L-methionine/1 mM ATP (2× final pre-stopped concentration) in assay buffer; MAT2A (2× final pre-stopped concentration) in Assay Buffer and Working Phosphate Sensor Mixture (1.5 μM Phosphate Sensor/30 mM EDTA in Assay Buffer, which is 3× final concentrations) were prepared. […] The plate was read for fluorescence at 450 nm after exciting at 430 nm.
Percent inhibition was calculated in Chemical and Biological Information System (CBIS), (ChemInnovation Software Inc.). […]

[8] = Behavior under compression; type: physicochemical; settings: 2 Mpa/2 min, hydraulic press
Method: XRPD characterization was performed to investigate polymorphic behavior under compression.

[9] = Bulk stability of crystalline forms; type: physicochemical; design: key: Color A: All No change of color; Color B: Slightly discoloration; settings: Solid state, 60° C., tight container, 2 weeks
Source text: as §1

[10] = 25° C./92% RH, open container, 1 week
[11] = 25° C./92% RH, open container, 2 weeks
[12] = 25° C./92% RH, open container, 4 weeks
[13] = 40° C./75% RH, open container, 1 week
[14] = 40° C./75% RH, open container, 2 weeks
[15] = 40° C./75% RH, open container, 4 weeks
[16] = 60° C., tight container, 1 week
[17] = 60° C., tight container, 2 weeks
[18] = 60° C., tight container, 4 weeks

## Nc1nc(=O)n(-c2ccccc2Cl)c2nc(C(F)(F)F)ccc12 [Form T, 4-Amino-1-(2-chlorophenyl)-7-(trifluoromethyl)pyrido[2,3-d]pyrimidin-2(1H)-one]
[1]; DVS at 25° C., cycle 40-0-95-0-40% RH
  hygroscopicity: slightly hygroscopic
[1]; XRPD after DVS
  form change after the DVS test: No form change
[2]; Dry grinding for 5 min
  XRPD after dry grinding: substantially amorphous
[2]; ground manually with mortar and pestle, 5 min or 1 min, XRPD
  tolerance to dry grinding: poor tolerance
[3]; Water
  XRPD after wet grinding: No form change
[3]; wet grinding, XRPD
  form change after granulation with water: no form change
  tolerance to granulation with water: good tolerance
[4]; [10]
  Purity, Bulk (HPLC): 99.1%
[4]; [11]
  Purity, Bulk (HPLC): 99.0%
[4]; [12]
  Purity, Bulk (HPLC): 98.9%
[4]; [13]
  Purity, Bulk (HPLC): 98.9%
[4]; [14]
  Purity, Bulk (HPLC): 98.7%
[4]; [15]
  Purity, Bulk (HPLC): 98.3%
[4]; [16]
  Purity, Bulk (HPLC): 99.1%
[4]; [17]
  Purity, Bulk (HPLC): 99.0%
[4]; [18]
  Purity, Bulk (HPLC): 98.7%
[4]
  Initial purity: 99.1%
  chemical stability and physical stability (bulk stability): good chemical stability and physical stability
[5]; FaSSIF, pH 6.5, 37° C.
  XRPD of solid after solubility test: Form T
  final pH: 6.5
  Solubility: 80 µg/mL (≈ 235 µM)
[5]; FeSSIF, pH 5.0, 37° C.
  XRPD of solid after solubility test: Form T
  final pH: 5.0
  Solubility: 160 µg/mL (≈ 470 µM)
[6]
  XRPD after IDR: No form change
  Concentration detected during IDR test (Comments): <LOQ (0.0003 mg/mL
[7]; [10]
  Color: A
[7]; [11]
  Color: A
[7]; [12]
  Color: A
[7]; [13]
  Color: A
[7]; [14]
  Color: A
[7]; [15]
  Color: A
[7]; [16]
  Color: A
[7]; [17]
  Color: A
[7]; [18]
  Color: A

## Nc1nc(=O)n(-c2ccccc2Cl)c2nc(C(F)(F)F)ccc12 [Formula (I), 4-Amino-1-(2-chlorophenyl)-7-(trifluoromethyl)pyrido[2,3-d]pyrimidin-2(1H)-one]
MAT2A enzyme
  IC50: < 200 nM

## Nc1nc(=O)n(-c2ccccc2Cl)c2nc(C(F)(F)F)ccc12 [substantially amorphous form, 4-Amino-1-(2-chlorophenyl)-7-(trifluoromethyl)pyrido[2,3-d]pyrimidin-2(1H)-one]
[8]
  XRPD after compression: No form change
[4]; [10]
  Purity, Bulk (HPLC): 98.5%
[4]; [11]
  Purity, Bulk (HPLC): 98.1%
[4]; [12]
  Purity, Bulk (HPLC): 97.2%
[4]; [13]
  Purity, Bulk (HPLC): 97.5%
[4]; [14]
  Purity, Bulk (HPLC): 96.1%
[4]; [15]
  Purity, Bulk (HPLC): 93.5%
[4]; [16]
  Purity, Bulk (HPLC): 98.4%
[4]; [17]
  Purity, Bulk (HPLC): 97.8%
[4]; [18]
  Purity, Bulk (HPLC): 97.8%
[4]; after exposure to 40° C./75 RH in an open container and 60° C. in a tight container
  degradation (bulk stability): slight degradation
[4]
  Initial purity: 98.7%
  chemical stability and physical stability (bulk stability): physically stable
[5]; FaSSIF, pH 6.5, 37° C.
  final pH: 6.5
  Solubility: 120 µg/mL (≈ 352 µM)
[5]; FeSSIF, pH 5.0, 37° C.
  final pH: 5.0
  Solubility: 230 µg/mL (≈ 675 µM)
[6]
  XRPD after IDR: No form change
  Concentration detected during IDR test (Comments): <LOQ (0.0008 mg/mL
[7]; [10]
  Color: A
[7]; [11]
  Color: A
[7]; [12]
  Color: A
[7]; [13]
  Color: A
[7]; [14]
  Color: A
[7]; [15]
  Color: A
[7]; [16]
  Color: A
[7]; [18]
  Color: A
[9]
  Color: B
